From the supplement of paper PMC10307832

How the values were obtained:
Experiment in all cases: relative viability (nuclei count vs DMSO), 5 days (fraction); higher = more cells survive
[1] = compound: C1=CC2=NC=CN=C2C=C1/C=C/3\C(=O)NC(=O)S3 + CC(=O)c1c(C)c2cnc(Nc3ccc(N4CCNCC4)cn3)nc2n(C2CCCC2)c1=O [Palbociclib] (partner 0.5 µM)
Summary of the method: (§1)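 Lung cancer cell lines were pin-tool dosed in 1536-well plates on the day after seeding, with either a lone drug or a fixed anchor-drug dose plus five library-drug doses (not always all listed) in √10 steps. Nuclei were counted on 4× images after 5 days. Relative viability is the ratio of treated-well to vehicle-well nuclei counts, with each value a median of duplicate plates.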

[2] = compound: C1=CC2=NC=CN=C2C=C1/C=C/3\C(=O)NC(=O)S3 + CC1(C)CCC(c2ccc(Cl)cc2)=C(CN2CCN(c3ccc(C(=O)NS(=O)(=O)c4ccc(N[C@H](CCN5CCOCC5)CSc5ccccc5)c(S(=O)(=O)C(F)(F)F)c4)cc3)CC2)C1 [Navitoclax] (partner 0.5 µM)
Summary of the method: as §1

BGJ398 + Crizotinib = compound: CCN1CCN(c2ccc(Nc3cc(N(C)C(=O)Nc4c(Cl)c(OC)cc(OC)c4Cl)ncn3)cc2)CC1 [BGJ398] + C[C@@H](Oc1cc(-c2cnn(C3CCNCC3)c2)cnc1N)c1c(Cl)ccc(F)c1Cl [Crizotinib] (partner 1 µM)
Summary of the method: as §1

BGJ398 + Linsitinib = compound: CCN1CCN(c2ccc(Nc3cc(N(C)C(=O)Nc4c(Cl)c(OC)cc(OC)c4Cl)ncn3)cc2)CC1 [BGJ398] + C[C@]1(O)C[C@@H](c2nc(-c3ccc4ccc(-c5ccccc5)nc4c3)c3c(N)nccn32)C1 [Linsitinib] (partner 1 µM)
Summary of the method: as §1

Row | Cell Line | relative viability ([1]; first compound 0.02 µM) | relative viability ([1]; first compound 0.06325 µM) | relative viability ([1]; first compound 0.2 µM) | relative viability ([1]; first compound 0.6325 µM) | relative viability ([1]; first compound 2 µM) | relative viability ([2]; first compound 0.02 µM) | relative viability ([2]; first compound 0.06325 µM) | relative viability ([2]; first compound 0.2 µM) | relative viability ([2]; first compound 0.6325 µM) | relative viability ([2]; first compound 2 µM) | relative viability (BGJ398 + Crizotinib; first compound 0.01 µM) | relative viability (BGJ398 + Crizotinib; first compound 0.03162 µM) | relative viability (BGJ398 + Crizotinib; first compound 0.1 µM) | relative viability (BGJ398 + Crizotinib; first compound 0.3162 µM) | relative viability (BGJ398 + Crizotinib; first compound 1 µM) | relative viability (BGJ398 + Linsitinib; first compound 0.01 µM) | relative viability (BGJ398 + Linsitinib; first compound 0.03162 µM) | relative viability (BGJ398 + Linsitinib; first compound 0.1 µM) | relative viability (BGJ398 + Linsitinib; first compound 0.3162 µM) | relative viability (BGJ398 + Linsitinib; first compound 1 µM)
1 | LC-2-ad | 0.463 | 0.455 | 0.481 | 0.53 | 0.352 | 0.441 | 0.455 | 0.461 | 0.378 | 0.397 | 0.446 | 0.451 | 0.444 | 0.487 | 0.476 | 0.827 | 0.88 | 0.817 | 0.87 | 0.843
2 | LCLC-97TM1 | 0.239 | 0.214 | 0.215 | 0.176 | 0.155 | 0.483 | 0.339 | 0.483 | 0.425 | 0.379 | 0.34 | 0.335 | 0.317 | 0.463 | 0.267 | 0.169 | 0.159 | 0.194 | 0.212 | 0.186
3 | LK-2 | 0.593 | 0.767 | 0.619 | 0.665 | 0.24 | 0.791 | 1.03 | 1.04 | 0.684 | 0.548 | 0.206 | 0.227 | 0.214 | 0.224 | 0.231 | 0.519 | 0.438 | 0.242 | 0.214 | 0.171
4 | LOU-NH91 | 0.501 | 0.538 | 0.556 | 0.552 | 0.548 | 0.686 | 0.659 | 0.685 | 0.641 | 0.657 | 0.724 | 0.506 | 0.688 | 0.569 | 0.728 | 0.903 | 0.539 | 0.933 | 0.557 | 0.911
5 | LU99A | 0.444 | 0.389 | 0.439 | 0.398 | 0.276 | 0.77 | 0.993 | 0.746 | 0.876 | 0.64 | 0.532 | 0.49 | 0.595 | 0.525 | 0.479 | 0.524 | 0.47 | 0.575 | 0.51 | 0.441
6 | LXF-289 | 0.529 | 0.632 | 0.574 | 0.552 | 0.637 | 0.92 | 0.918 | 0.898 | 0.917 | 0.932 | 0.817 | 0.764 | 0.761 | 0.705 | 0.637 | 0.944 | 0.886 | 0.883 | 0.84 | 0.899
7 | NCI-H23 | 0.513 | 0.547 | 0.577 | 0.509 | 0.349 | 0.714 | 1.18 | 0.828 | 0.868 | 0.635 | 0.531 | 0.539 | 0.486 | 0.58 | 0.566 | 0.582 | 0.597 | 0.564 | 0.568 | 0.48
8 | NCI-H322M | 0.553 | 0.491 | 0.477 | 0.454 | 0.455 | 1.05 | 1.12 | 1.35 | 1.11 | 1.16 | 1.04 | 0.77 | 0.956 | 0.961 | 1.1 | 0.863 | 0.788 | 0.978 | 0.935 | 0.999
9 | NCI-H441 | 0.195 | 0.271 | 0.24 | 0.193 | 0.112 | 0.523 | 0.562 | – | 0.771 | 0.553 | 0.601 | 0.841 | 0.778 | 0.691 | 0.783 | 0.526 | 0.569 | 0.7 | 0.486 | 0.484
10 | NCI-H460 | 0.168 | 0.107 | 0.176 | 0.2 | 0.122 | 1.03 | 1.24 | 1.19 | 1.02 | 1.11 | 0.59 | 0.861 | 1.02 | 0.892 | 0.826 | 0.714 | 0.838 | 0.916 | 0.895 | 0.92
11 | NCI-H520 | 0.211 | 0.246 | 0.251 | 0.181 | 0.201 | 1.15 | 1.49 | 1.08 | 1.04 | 1.01 | 0.829 | 0.72 | 0.395 | 0.456 | 0.281 | 0.934 | 0.922 | 0.735 | 0.435 | 0.367
12 | NCI-H647 | 0.314 | 0.488 | 0.41 | 0.363 | 0.342 | 0.945 | 1.36 | 1.08 | 1.14 | 1.25 | 1.03 | 1.01 | 1.16 | 1.06 | 1.03 | 1.06 | 1.29 | 1.26 | 1.17 | 1.08
13 | NCI-H727 | 0.549 | 0.683 | 0.637 | 0.649 | 0.556 | 0.499 | 0.642 | 0.541 | 0.395 | 0.228 | 0.809 | 0.853 | 0.795 | 0.857 | 0.711 | 0.345 | 0.281 | 0.286 | 0.291 | 0.301
